# From patent publication EP0348513A1, “STYRENE DERIVATIVE, POLYSTYRENE DERIVATIVE COMPRISING THE SAME, PROCESS FOR PREPARING SAID POLYSTYRENE DERIVATIVE, AND ULTRAVIOLET ABSORBER COMPRISING SAID STYRENE DERIVATIVE OR POLYSTYRENE DERIVATIVE” (Earth Chemical Co., Ltd., priority 1987, dated 1989)
# Values joined by “and” are separate entries in the source; they are usually repeats but may differ in a detail not shown here. Identical values can stand only once.
# Assays:
# [1] = Ultraviolet absorption spectrum (spectrophotometer, quartz cell, optical path 10 mm); assay type: physicochemical
# Method: The measurement was carried out by using a spectrophotometer (UV-200S, made by SHIMADZU CORPORATION) as an ethanol solution of the sample having a suitable concentration with a quartz cell having an optical path of 10 mm. Also, the wavelength at the maximum absorption and the molar extinction coefficient were found from the results of the measurement as the ultraviolet absorptive properties. The results are shown below. • Wavelength at the maximum absorption: 332 nm Molar extinction coefficient: 44,000
# The measurement was carried out by using a spectrophotometer (UV-200S, made by SHIMADZU CORPORATION), as a dimethylformamide solution of the sample having a suitable concentration and with a quartz cell having an optical path of 10 mm.
# The measurement was carried out by using a spectrophotometer (UV-200S, made by SHIMADZU CORPORATION), as a dimethylformamide solution of the sample having a suitable concentration, with a quartz cell having an optical path of 10 mm.
# [2] = Transmittance of ultraviolet rays through a coated polyethylene sheet; assay type: physicochemical; conditions: wavelength of 330 nm
# Method: There was dissolved 2.8 g of p-vinylbenzaldehyde 4-carboxymethyl-2-methylthiosemicarbazone in 1.5 g of triethanolamine and 23.7 g of water. The solution was applied onto a polyethylene sheet having a thickness of 0.5 mm (which was prepared in the same manner as the preparation process for the'control pieces in Example 11) in an amount of 2.0 mg/cm^2, and dried at room temperature to give a ultraviolet absorbent sheet.
# The obtained ultraviolet absorbent sheet and untreated polyethylene sheet were cut into pieces having a size of 1 cm X 4 cm, respectively. The untreated polyethylene sheet was used as control piece, and transmittance of ultraviolet rays at a wavelength of 330 nm was measured by using a spectrophotometer. As the result, the transmittance of ultraviolet rays of the ultraviolet absorbent sheet was not more than 0.1 %. Accordingly, it was confirmed that not less than 99.9 % of ultraviolet rays were absorbed under the above condition.
# [3] = tested on: guinea pigs; experiment: Sunscreen effect against ultraviolet irradiation of the skin; assay type: in vivo; conditions: sunscreen ointment or lotion containing the derivative, about 2 mg per 1 cm^2, ultraviolet rays 10 minutes, judged after 24 hours with the naked eyes; control area turned red
# Method: (§1) Hair of. the notal of three guinea pigs was cut, and the drug (ointment) was applied in an amount of about 2 mg per 1 cm^2. Then, ultraviolet rays were irradiated for 10 minutes by a fluorescent light (FL-20SE, made by TOSHIBA CORPORATION) from a height of 10 cm from the notal.. On the other hand, as a control area, a base prepared without mixing the sunscreening agent was applied, and treatments were carried out in the same manner as.above. The judgement was conducted after 24 hours with the naked eyes.
# as §1, with “of” for “of.”, “cm^2..” for “cm^2.”, “notal.” for “notal..”, “as above.” for “as.above.”
# [4] = tested on: skin of a quinea pig; experiment: Percutaneous absorption, Franz diffusion cell; assay type: in vitro ADME; conditions: 1 % aqueous solution, 33°C, 20 hours
# Method: The skin of a quinea pig was peeled, washed with physiological saline and then set in a percutaneous absorption apparatus which was made in accordance with the description in Franz, T. J, J. Invest, Dermatol, 64, 190, 1975, by using a diffusion cell. The sample room was filled with 0.5 mi of a 1 % aqueous solution of the polystyrene derivative, and the acceptor was filled with physiological saline. After maintaining at 33°C for 20 hours while stirring with a magnetic stirrer, the physiological saline in the acceptor was taken out, and the ultraviolet absorbency was measured. In the same manner as above, ultraviolet absorbency was measured, using water alone as a negative control substance and a 1 % aqueous solution of p-aminobenzoic acid as a positive control substance. […] To the contrary, the spectrum of the positive control substance was shown the corresponding to an amount of 87.0 ppm of the compound.
# The skin of a quinea pig was peeled, washed with physiological saline and then set in a percutaneous absorption apparatus which was made in accordance with the description in Franz, T. J, J. Invest, Dermatol, 64, 190, 1975, by using a diffusion cell. […] After maintaining at 33°C for 20 hours while stirring with a magnetic stirrer, the physiological saline in the acceptor was taken out, and the ultraviolet absorbency was measured. […]
# [5] = commercially available sunscreening agent, at the first (shorter) maximum
# [6] = commercially available sunscreening agent, at the second (longer) maximum
# [7] = commercially available sunscreening agent, first (shorter) maximum
# [8] = commercially available sunscreening agent, second (longer) maximum
# [9] = ethanol solution, at the maximum absorption
# [10] = N,N-dimethylformamide solution, at the maximum absorption
# [11] = commercially available sunscreening agent, solvent not stated
Compound,Wavelength at the maximum absorption ([1]; ethanol solution),"Molar extinction coefficient [1, 9]",other results
"Cc1ccc(O)c(-n2nc3ccccc3n2)c1 [2-(2'-hydroxy-5'-methylphenylbenzotriazole), reference compound]",,,"molar extinction coefficients [1, 5]: 12,000; molar extinction coefficients [1, 6]: 13,000; wavelengths at the maximum absorption [1, 7]: 297 nm; wavelengths at the maximum absorption [1, 8]: 337 nm"
"COc1ccc(C(=O)c2ccccc2)c(O)c1 [2-hydroxy-4-methoxybenzophenone, reference compound]",,,"molar extinction coefficients [1, 5]: 13,000; molar extinction coefficients [1, 6]: 8,200; wavelengths at the maximum absorption [1, 7]: 287 nm; wavelengths at the maximum absorption [1, 8]: 326 nm"
"C=Cc1ccc(C=NN(C)C(=O)NCC(=O)OCC)cc1 [Example 3, p-vinylbenzaldehyde 4-ethoxy carbonylmethyl-2-methylsemicarbazone]",311 nm,"33,000",sunscreen effect (color of the applied area compared with an area not irradiated) [3]: the color in the area on which the sunscreen lotion was applied was not changed
"C=Cc1ccc(C=NN(C)C(=S)N(C)C)cc1 [Example 8, p-vinylbenzaldehyde 2,4,4-trimethylthiosemicarbazone]",331 nm,"29,000",
"C=Cc1ccc(C=NN(C(=S)NC)c2ccccc2)cc1 [Example 11, p-vinylbenzaldehyde 4-methyl-2-phenylthiosemicarbazone]",,,"Wavelength at the maximum absorption ([1]; N,N-dimethylformamide solution): 335 nm; Molar extinction coefficient [1, 10]: 38,000"
"C=Cc1ccc(C=NN(C)C(=S)Nc2ccccc2)cc1 [Example 12, p-vinylbenzaldehyde 2-methyl-4-phenylthiosemicarbazone]",,,"Wavelength at the maximum absorption ([1]; N,N-dimethylformamide solution): 338 nm; Molar extinction coefficient [1, 10]: 40,000"
"CC1CC(OC(=O)c2ccccc2O)CC(C)(C)C1 (stereo not drawn) [homomenthyl salicylate, reference compound]",,,"Molar extinction coefficient [1, 11]: 4,400; Wavelength at the maximum absorption [1, 11]: 308 nm"
Nc1ccc(C(=O)O)cc1 [p-aminobenzoic acid],,,amount of the compound in the acceptor corresponding to the spectrum [4]: 87.0 ppm and 93.0 ppm

# Second part, led by results:
Wavelength at the maximum absorption ([1]; ethanol solution),"Molar extinction coefficient [1, 9]",Compound,other results
332 nm,"44,000","C=Cc1ccc(C=NN(C)C(=S)NCC(=O)OC)cc1 [Example 1, p-vinylbenzaldehyde 4-methoxycarbonylmethyl-2-methylthiosemicarbazone]",
332 nm,"44,000","C=Cc1ccc(C=NN(C)C(=S)NCC(=O)O)cc1 [Example 2, p-vinylbenzaldehyde 4-carboxymethyl-2-methylthiosemicarbazone]",ultraviolet rays absorbed ([2]; same coated sheet): not less than 99.9%; transmittance of ultraviolet rays ([2]; triethanolamine/water solution applied at 2.0 mg/cm^2 on 0.5 mm polyethylene sheet): not more than 0.1%
315 nm,"34,000","C=Cc1ccc(C=NN(CC(=O)O)C(=S)NC)cc1 [Example 4, vinylbenzaldehyde 2-carboxymethyl-4-methylthiosemicarbazone]",
332 nm,"38,000","C=Cc1ccc(C=NN(CCCC(=O)O)C(=S)NC)cc1 [Example 5, p-vinylbenzaldehyde 2-(y-carboxypropyl)-4-methylthiosemicarbazone]",
381 nm,"34,000","C=Cc1ccc(C=NN(CC(=O)OCC)C(=S)N(C)C)cc1 [Example 6, p-vinylbenzaldehyde 2-ethoxycarbonylmethyl-4,4-dimethylthiosemicarbazone]",
315 nm,"34,000","C=Cc1ccc(C=NN(C)C(=S)NC)cc1 [Example 7, vinylbenzaldehyde 2,4-dimethylthiosemicarbazone]",
322 nm,"40,000","C=Cc1ccc(C=NN(CCO)C(=S)NC)cc1 [Example 9, p-vinylbenzaldehyde 2-(β-hydroxyethyl)-4-methylthiosemicarbazone]",
